The source of these data is patent publication US10800776B2, “Fluorine-containing triazolopyridine, and manufacturing method, pharmaceutical composition, and application thereof” (SHANGHAI INSTITUTE OF MATERIA MEDICA, CHINESE ACADEMY OF …, priority 2016, dated 2020).

The pEC50 is the EC50 on a negative log10 scale, so that one unit is a factor of ten. By pIC50 is commonly meant −log10 of the IC50, conventionally taken in molar units. For orientation: inhibition means the change of the read-out against control, counted positive when it falls.

Molecules are shown by their SMILES. pEC50, pIC50: −log10 of the molar value. Some results are limits rather than exact numbers.

In one series the test system is ICR mice. Description: Mouse swimming depression test. Type of series: in vivo. On the procedure: Experiment objectives: to observe the effect of the test compound on the depressive status of mice
Experimental animals: ICR mice, 20-28 g, both male and female
Experimental equipment: plexiglass tube: cylindrical, 25 cm high, 15 cm inner diameter
Sample treatment: The test compounds were ground with 1% CMC (sodium carboxymethyl cellulose) to prepare a homogeneous solution. In vivo dose was 5 mg/kg, 10 mg/kg and 20 mg/kg, the compound was orally administrated at 0.1 ml/10 g volume/body weight. Positive control drugs (amitriptyline and fluoxetine) were dissolved with 0.9% saline, in vivo dose was 10 mg/kg, intraperitoneal injected at 0.1 ml/10 g volume/body weight. (Note: mice were given the compound after fasted for 8 hours without water-fasted.)
Experimental principle: The mouse is placed in a limited space which can not escape to swim, thus inducing animals to non-movement state which reflects the animal's desperate behavior.
Experimental Methods: mice were grouped randomly, 15 minutes swimming depression was modeled at the first day, and equivalent mice were selected. The second day of the test, 1 hour after the animals were orally administered the compound (0.5 hours after intraperitoneal injection) and then the animals were put in water to record the non-movement time in the later 4 min of 6 min.

For a further series, the system named is C57BL/6 mice. Description: Mouse open field experiment. Type of series: in vivo. Particulars: for Central area dwell time (s) Mean ± SEM / Central area traveling distance percentage (%) Mean ± SEM / Total moving distance (cm) Mean ± SEM: 30 mg/kg i.p., 1 hour before, 30-minute test. The protocol: Experiment objectives: to observe the anti-anxiety effect of the test compound on the mice by open field experiment.
Experimental animals: male C57BL/6 mice, 10 weeks old, purchased from Beijing Huafukang Biotechnology Co., Ltd.
Animal rearing: The temperature in the animal room was maintained at 20-25° C., the humidity was maintained at 40-70%, and the photoperiod was 12 hours light and 12 hours dark. During feeding, the mice were housed in standard mouse cages, with colored labels on each cage clearly indicating the item number, and the basic information such as the responsible person, group, animal number and animal gender. All animals were given free access to pure water and standard certified rodent feed. Before the start of the experiment, the experimental animals were adapted to the feeding environment for at least one week.
The compound to be tested, intraperitoneally administered, 30 mg/kg.
Experimental principle: Based on the instincts of rodents tending to avoid light and fear of exploring open fields. When the experimental animals were first placed in the open field, the central area was a potential threat to the animals, while the peripheral area was relatively safe, and rats and mice were more likely to move along the perimeter of the field. Therefore, if the animal is of high anxiety level, it tends to stay in the peripheral area. Conversely, the number and time of exploration in the central area will increase.
Experimental grouping and administration: Experimental animals were randomly divided into 5 groups as follows:
During the 30-minute test period, the total distance traveled by the experimental animals, the central area dwell time, and the percentage of the central area travel distance will be detected and recorded.

The target in a further series is mGluR2 (Homo sapiens (Human), UniProt Q14416). Description: In vitro activity test for mGluR2 (HDB Fluo-8 calcium fluorescence, HEK/mGluR2 cell line). Type of series: cell-based. An excerpt: Experimental materials: HEK/mGluR2 cell line (human […] transfected HEK cell line), DMEM (FBS) medium, positive control LY487379 (purchased from sigma; CAS: to 352317-17-1)
Chain of mGluR2 (Q14416 19-872): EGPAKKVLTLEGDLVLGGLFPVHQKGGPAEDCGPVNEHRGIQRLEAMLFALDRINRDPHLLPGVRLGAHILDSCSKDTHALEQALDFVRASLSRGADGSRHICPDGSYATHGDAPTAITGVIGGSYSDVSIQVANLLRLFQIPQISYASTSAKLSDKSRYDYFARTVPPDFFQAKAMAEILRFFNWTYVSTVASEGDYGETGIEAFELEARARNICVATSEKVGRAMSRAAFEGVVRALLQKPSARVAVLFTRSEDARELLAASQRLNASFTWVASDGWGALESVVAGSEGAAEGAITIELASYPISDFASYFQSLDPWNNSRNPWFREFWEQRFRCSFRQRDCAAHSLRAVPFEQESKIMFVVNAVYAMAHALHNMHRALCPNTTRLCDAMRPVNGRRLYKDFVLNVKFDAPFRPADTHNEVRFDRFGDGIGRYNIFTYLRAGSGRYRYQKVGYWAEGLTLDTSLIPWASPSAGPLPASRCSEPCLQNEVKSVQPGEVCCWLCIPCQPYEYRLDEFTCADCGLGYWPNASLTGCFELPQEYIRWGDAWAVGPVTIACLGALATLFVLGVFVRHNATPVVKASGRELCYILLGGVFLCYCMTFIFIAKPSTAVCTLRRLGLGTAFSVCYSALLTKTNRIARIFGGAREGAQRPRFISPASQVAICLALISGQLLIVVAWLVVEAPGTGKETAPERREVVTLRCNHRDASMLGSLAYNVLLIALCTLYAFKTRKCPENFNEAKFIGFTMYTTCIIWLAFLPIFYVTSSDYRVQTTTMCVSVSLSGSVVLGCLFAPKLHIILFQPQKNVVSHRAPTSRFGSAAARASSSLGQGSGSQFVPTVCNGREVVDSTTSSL
Experimental instrument: FLIPR Tetra real-time fluorescence imaging analysis system
Experimental method: HDB Fluo-8 calcium fluorescence detection method
Experimental principle: HDB Fluo-8 calcium ion fluorescence detection method is a fast, simple and reliable fluorescence detection method of intracellular calcium concentration changes. The Fluo 8-AM fluorescent dye is an acetyl methyl ester derivative of Fluo 8 which can easily penetrate into the cell membrane by culture. The fluorescent dye in the cell will be hydrolyzed by intracellular esterase, the resulting Fluo 8 as a polar molecule, cannot easily pass through the lipid bimolecular membrane, and will be retained in the cell, and combine with calcium (Ca^2+) to produce fluoresces.
Cells expressing GPCR receptor protein (mGluR2) were first calibrated with a calcium ion sensitive fluorescent probe and then stimulated with the compound. After stimulation, the receptor activates the calcium ion mobilization, and the fluorescent probe captures the calcium ion to induce the fluorescence signal. The signal can be read by a fluoroscopy plate. The fluorescent plate reader contains a sample addition for compound addition, thus enabling the change of the fluorescence value of the compound be read in real time.

Another series concerns the target hERG potassium channel (Homo sapiens (Human), UniProt Q12809). The series can be described thus: hERG potassium channel toxicity assay (hERG patch clamp). Type of series: cell-based. Particulars: for pIC50: hERG patch clamp; for inhibition at 40 µM: human, hERG, at maximum concentration 40 μM, read-out: Inhibition rate (%). On the procedure:
Experimental method: hERG patch clamp detection method
Experimental procedure: Compound preparation: the stock solution of a compound was diluted with extracellular fluid, 2 μL of the compound stock solution was added to 998 μL extracellular fluid, and then serially diluted 5 times in an extracellular fluid containing 0.2% DMSO to obtain the final concentration to be tested.
(In general: Block of hERG is tested as a sign of cardiac risk.)

The mark [1] stands for this setting: 5 mg/kg, orally, 1 hour before test.
The mark [2] stands for this setting: 10 mg/kg, orally, 1 hour before test.
The mark [3] stands for this setting: 20 mg/kg, orally, 1 hour before test.
Where [4] appears, read: positive control, 10 mg/kg, intraperitoneal, 0.5 hours before test.

Chain of hERG potassium channel (Q12809 whole entry): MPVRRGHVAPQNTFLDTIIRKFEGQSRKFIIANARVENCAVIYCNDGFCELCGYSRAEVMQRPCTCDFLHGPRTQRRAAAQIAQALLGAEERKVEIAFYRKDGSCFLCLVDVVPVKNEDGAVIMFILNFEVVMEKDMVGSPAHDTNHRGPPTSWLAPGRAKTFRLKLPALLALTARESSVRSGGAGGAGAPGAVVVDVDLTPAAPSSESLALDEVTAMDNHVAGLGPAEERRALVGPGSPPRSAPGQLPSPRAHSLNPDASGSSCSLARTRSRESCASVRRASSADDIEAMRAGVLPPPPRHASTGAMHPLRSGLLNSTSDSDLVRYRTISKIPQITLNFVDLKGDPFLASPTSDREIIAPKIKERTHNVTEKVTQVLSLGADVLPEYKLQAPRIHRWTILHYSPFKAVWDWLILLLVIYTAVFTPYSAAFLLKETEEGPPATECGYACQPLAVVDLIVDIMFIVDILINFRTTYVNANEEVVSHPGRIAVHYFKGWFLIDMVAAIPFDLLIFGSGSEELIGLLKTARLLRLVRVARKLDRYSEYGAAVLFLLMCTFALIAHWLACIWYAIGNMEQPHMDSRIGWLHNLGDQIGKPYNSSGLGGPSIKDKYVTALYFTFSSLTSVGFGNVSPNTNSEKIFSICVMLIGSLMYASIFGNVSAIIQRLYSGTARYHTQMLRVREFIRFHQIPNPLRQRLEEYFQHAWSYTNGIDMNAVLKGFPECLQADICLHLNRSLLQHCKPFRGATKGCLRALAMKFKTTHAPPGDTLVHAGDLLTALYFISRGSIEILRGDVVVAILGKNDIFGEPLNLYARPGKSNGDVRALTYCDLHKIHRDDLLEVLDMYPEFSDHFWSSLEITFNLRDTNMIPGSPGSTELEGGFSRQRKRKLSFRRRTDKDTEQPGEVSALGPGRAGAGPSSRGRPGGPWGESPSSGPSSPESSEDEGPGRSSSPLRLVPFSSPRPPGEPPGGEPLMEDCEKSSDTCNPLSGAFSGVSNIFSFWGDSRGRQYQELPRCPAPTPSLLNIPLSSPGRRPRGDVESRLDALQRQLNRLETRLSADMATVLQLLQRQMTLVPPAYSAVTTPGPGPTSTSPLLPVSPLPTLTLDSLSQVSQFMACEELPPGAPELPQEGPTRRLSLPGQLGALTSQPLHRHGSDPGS

On to `COC(=O)c1ccc(-c2ccn3c(CC4CC4(F)F)nnc3c2Cl)c(F)c1` (stereo not drawn) [Compound 45, Methyl 4-(8-Chloro-3-((2,2-difluorocyclopropyl)methyl)-[1,2,4]triazole[4,3-a]pyridin-7-yl)-3-fluorobenzoate], for which the “non-movement time (%) Mean ± SEM” value in the series on ICR mice (setting [1]) came to 63.99 ± 11.00%. Moreover, the “non-movement time (%) Mean ± SEM” value in the series with ICR mice (setting [2]) was 34.88 ± 6.57%. Also, the “non-movement time (%) Mean ± SEM” value with ICR mice (setting [3]) worked out at 56.29 ± 17.56%. In the series on ICR mice (mouse, in vivo), the “"no movement time" of swimming in mice (in words)” value is on record as “effectively shorten” and the antidepressant effect result was “significant antidepressant effect”. In the series on C57BL/6 mice, the “Central area dwell time (s) Mean ± SEM” value is 110 ± 13.0 s, the “Central area traveling distance percentage (%) Mean ± SEM” value was 19.39 ± 1.63 % and the “Total moving distance (cm) Mean ± SEM” value stood at 5043.2 ± 457.5 cm. Further, the “central region's range of motion” value with C57BL/6 mice (dosage of 30 mg/kg) is recorded as “significantly increase”. The negative logarithm of the EC50 (pEC50) on mGluR2 was 7.06.

With `CN(C)CCC=C1c2ccccc2CCc2ccccc21` [Amitriptyline, reference compound], the “"no movement time" of swimming in mice (in words)” value in the series on ICR mice (mouse, in vivo) is on record as “significantly improved”. Moreover, the “non-movement time (%) Mean ± SEM” value in the series on ICR mice (setting [4]) is 5.32 ± 2.08 %.

For `CNCCC(Oc1ccc(C(F)(F)F)cc1)c1ccccc1` (stereo not drawn) [Fluoxetine, reference compound], the “non-movement time (%) Mean ± SEM” value in the series with ICR mice (setting [4]) turned out to be 33.98 ± 9.84 %.

Take `FC1(F)CC1Cc1nnc2cc(-c3ccc4c(c3)OCO4)ccn12` (stereo not drawn) [Compound 35, 7-(Benzo[d][1,3]dioxol-5-yl)-3-((2,2-difluorocyclopropyl)methyl)-[1,2,4]triazole [4,3-a]pyridine]: on hERG potassium channel, the pIC50 is less than 4.40 and the inhibition at 40 µM was found to be 40%. Moreover, in the series with C57BL/6 mice, the “Central area dwell time (s) Mean ± SEM” value came to 102.6 ± 20.8 s, the “Central area traveling distance percentage (%) Mean ± SEM” value came out at 15.41 ± 1.99% and the “Total moving distance (cm) Mean ± SEM” value was 3491.2 ± 650.6 cm. Besides, at mGluR2, the negative-log EC50 (pEC50) was 6.97.

Regarding `FC1(F)CC1Cc1nnc2cc(-c3ccc4c(c3)CCO4)ccn12` (stereo not drawn) [Compound 31, 3-((2,2-difluorocyclopropyl)methyl)-7-(2,3-benzodihydrofuran-5-yl)-[1,2,4]triazole[4,3-a]pyridine], on hERG potassium channel, the pIC50 was less than 4.40 and the inhibition at 40 µM came to 48.1%. In addition, the negative logarithm of the EC50 (pEC50) at mGluR2 is 6.43.

On to `FC1(F)CC1Cc1nnc2cc(-c3cccc4cccnc34)ccn12` (stereo not drawn) [Compound 34, 8-(3-((2,2-difluorocyclopropyl)methyl)-[1,2,4]triazole[4,3-a]pyridin-7-yl)quinoline], for which, at hERG potassium channel, the pIC50 was less than 4.40 and the inhibition at 40 µM was determined as 36%. Also, the negative-log EC50 (pEC50) on mGluR2 was 6.21.

As to `COc1ccc(-c2ccn3c(CC4CC4(F)F)nnc3c2Cl)cc1F` (stereo not drawn) [Compound 44, 8-chloro-3-((2,2-difluorocyclopropyl)methyl)-7-(3-fluoro-4-methoxyphenyl)-[1,2,4]triazole[4,3-a]pyridine], at hERG potassium channel, the negative logarithm of the IC50 (pIC50) was 4.79 and the inhibition at 40 µM came to 64.5%. At mGluR2, the pEC50 was 6.93.

With `Cc1cc(F)ccc1-c1ccn2c(CC3CC3(F)F)nnc2c1Cl` (stereo not drawn) [Compound 41, 8-chloro-3-((2,2-difluorocyclopropyl)methyl)-7-(4-fluoro-2-methylphenyl)-[1,2,4]triazole[4,3-a]pyridine], on hERG potassium channel, the negative logarithm of the IC50 (pIC50) was 4.95 and the inhibition at 40 µM was found to be 80.1%. For the same compound, the pEC50 at mGluR2 is 6.07.

On to `COC(=O)c1ccc(-c2ccn3c(CC4CC4(F)F)nnc3c2)c(F)c1` (stereo not drawn) [Compound 29, Methyl 4-(3-((2,2-difluorocyclopropyl)methyl)-[1,2,4]triazolo[4,3-a]pyridin-7-yl)-3-fluorobenzonate], for which, at hERG potassium channel, the pIC50 is 4.76 and the inhibition at 40 µM came to 62.4%. Further, the negative logarithm of the EC50 (pEC50) at mGluR2 is 6.27.

Turning to `CN1C(=O)CN=C(c2ccccc2)c2cc(Cl)ccc21` [Diazepam, reference compound], the “anti-anxiety effect in the open field experiment” value with C57BL/6 mice (mouse, in vivo) is on record as “very significant anti-anxiety effect”.

On to `FC1(F)CC1Cc1nnc2c(Cl)c(-c3ccc4c(c3)CCO4)ccn12` (stereo not drawn) [Compound 47, 8-chloro-3-((2,2-difluorocyclopropyl)methyl)-7-(2,3-benzodihydrofuran-5-yl)-[1,2,4]triazole[4,3-a]pyridine], for which, on hERG potassium channel, the pIC50 was 5.31 and the inhibition at 40 µM is 96.4%. The negative-log EC50 (pEC50) at mGluR2 was 6.67.

Consider `FC1(F)CC1Cc1nnc2c(Cl)c(-c3ccc4c(c3)OCO4)ccn12` (stereo not drawn) [Compound 50, 7-(Benzo[d][1,3]dioxol-5-yl)-8-chloro-3-((2,2-difluorocyclopropyl)methyl)-[1,2,4]triazole [4,3-a]pyridine], for which the “non-movement time (%) Mean ± SEM” value in the series on ICR mice (setting [1]) turned out to be 84.06 ± 10.65%; in the series on ICR mice (setting [2]), 52.10 ± 15.86%; in the series on ICR mice (setting [3]), 57.08 ± 17.80%. Besides, the “Central area dwell time (s) Mean ± SEM” value in the series on C57BL/6 mice is listed as 81.1 ± 10.2 s. Besides, the “Central area traveling distance percentage (%) Mean ± SEM” value in the series with C57BL/6 mice is on record as 13.91 ± 0.96%. For the same compound, the “Total moving distance (cm) Mean ± SEM” value with C57BL/6 mice is 4407.2 ± 390.5 cm. Further, at mGluR2, the pEC50 was 7.21.

In the case of `Cc1cccc(-c2ccn3c(CC4CC4(F)F)nnc3c2)c1` (stereo not drawn) [Compound 10, 3-((2,2-difluorocyclopropyl)methyl)-7-(m-tolyl)-[1,2,4]triazole [4,3-a]pyridine], on hERG potassium channel, the pIC50 is less than 4.40 and the inhibition at 40 µM came to 38.1%. Moreover, on mGluR2, the pEC50 was 6.84.
